# Measurements published in patent publication US11540539B2, “Reduced sodium food products” (GENERAL MILLS, INC., priority 2013, dated 2023).
# How the values were obtained:
# [1] = system: perception of saltiness; test: Na-solution DAP test: trained panel rates saltiness of compounds in sodium solution; format: in vivo; conditions: individual compounds in sodium solution; compound concentrations of 0.1, 1 and 10 ppm; DAP score greater than 3.1 indicates saltiness or salt enhancement
# Description: (§1) Briefly, each individual tested compound was placed in water and in sodium solution to test saltiness and saltiness enhancement potential. Tests in water were executed in a compound concentration of 10 ppm. Tests in sodium solution were executed in compound concentrations of 0.1, 1 and 10 ppm. Two control sodium solutions with known organoleptic salt intensities were provided as references for each test. The test for individual compounds was also conducted using simple broth instead of sodium solution. A number of compound combinations identified from the Na-solution DAP test were used for the broth DAP test. Tests were executed with a trained panel of 9-12 assessors. For Na-solution DAP tests, a DAP score of greater than 3.1 indicates saltiness or salt enhancement. The DAP score can be correlated with a sodium reduction potential by subtracting 3.1 from the DAP score.
# [2] = system: perception of saltiness; test: Broth DAP test: trained panel rates saltiness of compounds in simple broth; format: in vivo; conditions: individual compounds in simple broth; DAP score greater than 7.6 indicates saltiness or salt enhancement
# Description: as §1
smiles,measurement,setting,value
CC/C=C\C/C=C\C=C\[C@H](O)CCCCCCCC(=O)O [Compound 85],DAP in Na-Sol.,[1],2.9
C=CC(C)(O)CCC1(C)C2=C(C(OC(C)=O)C(OC(C)=O)C1C)C(C)(C)CCC2 (stereo not drawn) [Compound 29],DAP in Broth,[2],8.0
CC(C)CNC(=O)/C=C/C=C/CCCCCC/C=C/c1ccc2c(c1)OCO2 [Compound 15],DAP in Na-Sol.,[1],3.5
same,DAP in Broth,[2],8.1
COc1cc(CNC(=O)CCCCCCC(C)C)ccc1O [Compound 21],DAP in Na-Sol.,[1],4
COC1CC(OC2CCC3(C=O)C(CCC4C3CCC3(C)C(C5=CC(=O)OC5)CCC43O)C2)OC(C)C1O (stereo not drawn) [Compound 77],DAP in Na-Sol.,[1],3.4
same,DAP in Broth,[2],8.1
COc1cc(C2c3cc4c(cc3CC3COC(=O)C32)OCO4)cc(OC)c1OC (stereo not drawn) [Compound 59],DAP in Na-Sol.,[1],3.3
same,DAP in Broth,[2],7.9
C/C=C1\C(=O)CC2C3CCC4=CC(=O)CCC4(C)C3CCC12C (stereo not drawn) [Compound 75],DAP in Na-Sol.,[1],3.6
COc1cc2c(c(OC)c1OC)-c1c(cc3c(c1OC)OCO3)CC(C)C(C)C2 (stereo not drawn) [Compound 46],DAP in Broth,[2],7.8
C[C@H]1[C@H](C)CC[C@]2(C(=O)O)CC[C@]3(C)C(=CC[C@@H]4[C@@]5(C)CC[C@H](O)C(C)(C)[C@@H]5CC[C@]43C)[C@H]12 [Compound 43],DAP in Broth,[2],8.0
CC/C=C\C=C\C(O)C/C=C\CCCCCCCC(=O)O (stereo not drawn) [Compound 86],DAP in Na-Sol.,[1],3.9
same,DAP in Broth,[2],8.0
CC(C)(O)C(O)COc1c2ccoc2cc2oc(=O)ccc12 (stereo not drawn) [Compound 63],DAP in Broth,[2],8.0
COc1cc(CC(C)C(C)Cc2ccc(O)c(OC)c2)ccc1O (stereo not drawn) [Compound 49],DAP in Broth,[2],8.2
CC1(C)CC[C@]2(C(=O)O)CC[C@]3(C)C(=CCC4[C@@]5(C)C[C@@H](O)[C@H](O)C(C)(C)C5CC[C@]43C)C2C1 (stereo partly drawn) [Compound 42],DAP in Na-Sol.,[1],3.1
same,DAP in Broth,[2],8.1
COc1cc2c(c(OC)c1OC)-c1c(cc(OC)c(OC)c1OC)C[C@H](C)[C@H](C)C2 [Compound 45],DAP in Broth,[2],8.2
CCCCCCCC/C=C/C(O)CCCCCCC(=O)OCC(O)CO (stereo not drawn) [Compound 87],DAP in Broth,[2],8.0
C[C@]12CC[C@H](O)C[C@H]1CC[C@@H]1[C@@H]2CC[C@]2(C)[C@@H](C3=CC(=O)OC3)CC[C@]12O [Compound 73],DAP in Na-Sol.,[1],3.5
same,DAP in Broth,[2],8.0
COc1cc(CCC(O)CC(=O)CCc2ccccc2)ccc1O (stereo not drawn) [Compound 12],DAP in Broth,[2],7.6
C=CCCCCCCCCCCC[C@H](O)C[C@H](O)CO [Compound 82],DAP in Na-Sol.,[1],3.8
same,DAP in Broth,[2],8.3
CCCCC/C=C/C=C/C(O)CCCCCCCC(=O)O (stereo not drawn) [Compound 88],DAP in Broth,[2],8.0
COC1CC(OC2CCC3(C=O)C(CCC4C3CCC3(C)C(C5=CC(=O)OC5)CCC43O)C2)OC(C)C1OC1OC(CO)C(O)C(O)C1O (stereo not drawn) [Compound 76],DAP in Na-Sol.,[1],3.2
same,DAP in Broth,[2],8.0
COc1c2ccoc2cc2oc(=O)ccc12 [Compound 62],DAP in Na-Sol.,[1],3.9
same,DAP in Broth,[2],78.0
C=CCCCCCCC(C(=O)O)C(O)CC(=O)O (stereo not drawn) [Compound 81],DAP in Na-Sol.,[1],3.2
same,DAP in Broth,[2],7.8
CC(=O)OC1C(O)COC(OC2C(O)C(C)OC(OC(C)(CCC=C(C)C)C3C(O)CC4(C)C3CCC3C5(C)CCC(OC6OCC(O)C(O)C6O)C(C)(C)C5CCC34C)C2O)C1O (stereo not drawn) [Compound 38],DAP in Na-Sol.,[1],3.9
same,DAP in Broth,[2],8.1
CC(C)=CCOc1c2occc2cc2ccc(=O)oc12 [Compound 64],DAP in Na-Sol.,[1],3.7
same,DAP in Broth,[2],7.8
CCCCCC(CC(CCc1ccc(O)c(OC)c1)OC(C)=O)OC(C)=O (stereo not drawn) [Compound 3],DAP in Broth,[2],8.8
COc1cc(CC/C=C/C(=O)CCc2ccccc2)ccc1O [Compound 11],DAP in Broth,[2],8.1
CC(=O)O[C@@H]1CC2C(C)(C)C(=O)C=C[C@]2(C)C2CC[C@]3(C)C(=CC(=O)C3c3ccoc3)[C@@]21C (stereo partly drawn) [Compound 74],DAP in Na-Sol.,[1],3.2
same,DAP in Broth,[2],7.7
CC1CCC2(OC1)OC1CC3C4CCC5CC(OC6OC(CO)C(OC7OC(CO)C(O)C(OC8OC(CO)C(O)C(OC9OCC(O)C(O)C9O)C8O)C7O)C(OC7OCC(O)C(O)C7O)C6O)CCC5(C)C4CC(=O)C3(C)C1C2C (stereo not drawn) [Compound 37],DAP in Na-Sol.,[1],3.7
same,DAP in Broth,[2],8.1
C=CC(C)(O)CC/C=C(\C)C(=O)OC1C(OCC2OC(OC(=O)C34CCC(C)(C)CC3C3=CCC5C6(C)CCC(OC7OC(COC8OCC(O)C(O)C8OC8OCC(O)C(O)C8O)C(O)C(O)C7O)C(C)(C)C6CCC5(C)C3(C)CC4O)C(OC3OC(C)C(OC4OCC(O)C(OC5OCC(O)C(O)C5O)C4O)C(O)C3O)C(OC(=O)/C(C)=C/CCC(C)(O)C=C)C2O)OC(C)C(O)C1O (stereo not drawn) [Compound 35],DAP in Na-Sol.,[1],3.7
same,DAP in Broth,[2],8.1
CCCCCCCCCCNC(C)=O [Compound 84],DAP in Na-Sol.,[1],3.8
same,DAP in Broth,[2],8.1
COc1cc(O)c(C(C)=O)c(OC)c1 [Compound 53],DAP in Broth,[2],8.5
C=C[C@@]1(C)CC(=O)C2[C@]3(C)C(C[C@@H](O)[C@@]2(O)C1=O)C(C)(C)[C@H](OC(C)=O)[C@H](OC(C)=O)[C@@H]3OC(=O)c1ccccc1 (stereo partly drawn) [Compound 32],DAP in Broth,[2],8.1
CC(=O)OC1CCC2(C)C(COc3ccc4ccc(=O)oc4c3)C(C)(O)CCC2C1(C)C (stereo not drawn) [Compound 66],DAP in Na-Sol.,[1],3.2
same,DAP in Broth,[2],7.8
CC(C)C(=O)c1c2c(c3oc(=O)cc(-c4ccccc4)c3c1O)CC(C(C)(C)O)O2 (stereo not drawn) [Compound 60],DAP in Na-Sol.,[1],3.8
same,DAP in Broth,[2],8.1
O=C(/C=C/C=C/c1ccc2c(c1)OCO2)N1CCCCC1 [Compound 18],DAP in Broth,[2],8.1
C/C=C(\C)C(=O)O[C@H]1[C@H](O)[C@]2(CO)[C@H](O)C[C@]3(C)C(=CCC4[C@@]5(C)CC[C@H](O[C@@H]6O[C@H](C(=O)O)[C@@H](O[C@@H]7O[C@H](CO)[C@@H](O)[C@H](O)[C@H]7O)[C@H](O)[C@H]6O[C@@H]6O[C@H](CO)[C@@H](O)[C@H](O)[C@H]6O)[C@](C)(CO)C5CC[C@]43C)[C@@H]2CC1(C)C (stereo partly drawn) [Compound 34],DAP in Broth,[2],7.7
C=CCCCCCCCCCCCC(CC(O)COC(C)=O)OC(C)=O (stereo not drawn) [Compound 83],DAP in Na-Sol.,[1],4.2
same,DAP in Broth,[2],8.1
COc1cc2oc(=O)ccc2c(OC)c1CC=C(C)C [Compound 28],DAP in Na-Sol.,[1],3.6
CCCCC/C=C\CCCCCCc1cc(=O)c2ccccc2n1C [Compound 16],DAP in Broth,[2],8.0
COc1cc2c(c(OC)c1OC)-c1c(cc3c(c1OC)OCO3)C[C@H](C)[C@@](C)(O)C2 [Compound 44],DAP in Na-Sol.,[1],3.8
same,DAP in Broth,[2],8.6
CCC/C=C\C/C=C\CCCC/C=C\Cc1cc(O)cc(O)c1 [Compound 10],DAP in Broth,[2],7.9
CCCCCCCCCCC[C@@H](O)CC(=O)CCc1ccc(O)c(OC)c1 [Compound 1],DAP in Broth,[2],7.8
COc1c2ccoc2c(OCC=C(C)C)c2oc(=O)ccc12 [Compound 65],DAP in Na-Sol.,[1],3.3
same,DAP in Broth,[2],7.9
COc1cc(COC(=O)CCCC/C=C/C(C)C)ccc1O [Compound 13],DAP in Broth,[2],7.9
CCCCCCCCC/C=C/C(=O)CCc1ccc(O)c(OC)c1 [Compound 2],DAP in Broth,[2],7.8
